≈ marks a conversion by molar mass, not a printed value. Where two headings read alike, the source gives them in different places. Marks after values point to notes of the source that are not given here. Blank lines part the entries; values can stand above or below the compound they belong to.
Assays:
[1] = DPPH radical scavenging assay; assay type: biochemical; conditions: for DPPH, 2,2-diphenyl-1-picrylhydrazyl radical scavenging activity: (trolox IC50/sample IC50) × 1000, average ± S.D., text prints mg trolox/g
Experimental: The 2,2-diphenyl-1-picrylhydrazyl (DPPH) radical scavenging activity was performed as described earlier. […] The IC50 value was found as the effective concentration at which DPPH radicals were scavenged by 50%. The value of antioxidant activity (A^DPPH) against DPPH radicals was found as a ratio of trolox IC50 to sample IC50 [A^DPPH = (IC50^Trolox/ IC50^Sample) × 1000] and expressed as mg of trolox in 1 g of sample. Values are expressed as mean obtained from five independent experiments.

[2] = biological target: T1, α-amylase from Aspergillus oryzae (Aspergillus oryzae, UniProt P0C1B3); experiment: α-amylase inhibiting potential, spectrophotometric assay; assay type: biochemical; conditions: (acarbose IC50/sample IC50) × 1000, average ± S.D., text prints mg acarbose/g
T1 construct: purchased Sigma-Aldrich 10065
Experimental: (§1) The α-amylase inhibiting potential and α-glucosidase inhibiting potential were performed using spectrophotometric assays. The α-amylase from Aspergillus oryzae (3 U/mL) and α-glucosidase from Saccharomyces cerevisae (0.5 U/mL) were used as […]. […] Values are expressed as mean obtained from six independent experiments.

[3] = HPLC-DAD assay coupled with pre-chromatographic reaction with DPPH radicals; assay type: biochemical; conditions: peak in G. asclepiadea herb extract, HPLC-DAD 210 nm
Experimental: Scavenging activity against DPPH radicals of gentian herb extracts were medium to high and varied from 147.57 mg trolox/g for G. paradoxa to 580.71 mg trolox/g for G. asclepiadea (Table 3). Extracts of gentian roots were characterized by mostly low activity, with activity values <10 mg trolox/g. […] Figure 9a,b show chromatograms of G. asclepiadea herb extract before and after reaction with DPPH radical. […]. Additional phenolic groups such as 2,3-dihydroxybenzoyl in iridoid structures of gelidoside (rindoside) and trifloroside can increase the radical scavenging potential, but not much (20.82–25.14 mg trolox/g).
Figure 9 HPLC-DAD chromatograms (210 nm) of G. asclepiadea herb extract before (a) and after (b) pre-chromatographic reaction with DPPH radicals and G. gelida roots extract before (c) and after (d) pre-chromatographic reaction with DPPH radicals. Zone of compounds numbered as follows: i—loganic acid; ii—swertiamarin; iii—isoorientin-2″-O-glucoside; iv—gentiopicroside; v—mangiferin; vi—isovitexin-2″-O-glucoside; vii—isoorientin; viii—saponarin; ix—isovitexin; x—luteolin-7-O-glucoside; xi—apigenin-7-O-glucoside; xii—gentiopicroside-6″-O-glucoside; xiii—gelidoside (rindoside); xiv—trifloroside. […] TEXT PRINTED IN THE PICTURE: (b) i: 3% | (b) iii: 72% | (b) iv: 5% | (b) v: 98% | (b) vii: 85% | (b) xi: 11% | (d) iv: 5% | (d) xiii: 8% | (d) xiv: 5% DOUBTS OF THE COPYIST ABOUT THIS PICTURE: The picture prints no measure with the percentages; only the bare % values are copied. / Panel d, 8% (arrow): taken as peak xiii, with 5% taken as xiv; peaks xiii and xiv lie close together, so the assignment is not fully certain. / Panel b, 98% (arrow): taken as peak v, which lies on the shoulder of iv. / The percentages are printed under traces (b) and (d) but compare (a) with (b) and (c) with (d), so the panel choice is uncertain.

[4] = lipid peroxidation inhibition assay; assay type: biochemical; conditions: for LPA, lipid peroxidation inhibition activity: (caffeic acid IC50/sample IC50) × 1000, average ± S.D., text prints mg caffeic acid/g
Source text: The previously described method was used to investigate the lipid peroxidation inhibition potency. […] The IC50 value was found as the effective sample concentration gave 50% reduction of optical density of initial solution. The value of lipid peroxidation inhibition (I) was found as a ratio of caffeic acid IC50 to sample IC50 [I = (IC50^Caffeic acid/ IC50^Sample) × 1000] and expressed as mg of caffeic acid in 1 g of sample. Values are expressed as mean obtained from five independent experiments.

[5] = superoxide anion radical scavenging assay; assay type: biochemical; conditions: for O2^-, superoxide anion-radical scavenging activity: (quercetin IC50/sample IC50) × 1000, average ± S.D., text prints mg quercetin/g
Source text: The known assay was used to determine superoxide anion radical scavenging activity. […] The IC50 value was found as the effective concentration at which superoxide anion radicals were scavenged by 50%. The value of antioxidant activity (A^O2•) against superoxide anion radicals was found as a ratio of quercetin IC50 to sample IC50 [A^O2• = (IC50^Quercetin/ IC50^Sample) × 1000] and expressed as mg of quercetin in 1 g of sample. Values are expressed as mean obtained from five independent experiments.

[6] = biological target: T2, α-glucosidase from Saccharomyces cerevisiae (Saccharomyces cerevisiae, UniProt P53341); experiment: α-glucosidase inhibiting potential, spectrophotometric assay; assay type: biochemical; conditions: (acarbose IC50/sample IC50) × 1000; average ± S.D.; text prints mg acarbose/g
T2 construct: purchased Sigma-Aldrich G5003
T2 sequence (P53341 whole entry): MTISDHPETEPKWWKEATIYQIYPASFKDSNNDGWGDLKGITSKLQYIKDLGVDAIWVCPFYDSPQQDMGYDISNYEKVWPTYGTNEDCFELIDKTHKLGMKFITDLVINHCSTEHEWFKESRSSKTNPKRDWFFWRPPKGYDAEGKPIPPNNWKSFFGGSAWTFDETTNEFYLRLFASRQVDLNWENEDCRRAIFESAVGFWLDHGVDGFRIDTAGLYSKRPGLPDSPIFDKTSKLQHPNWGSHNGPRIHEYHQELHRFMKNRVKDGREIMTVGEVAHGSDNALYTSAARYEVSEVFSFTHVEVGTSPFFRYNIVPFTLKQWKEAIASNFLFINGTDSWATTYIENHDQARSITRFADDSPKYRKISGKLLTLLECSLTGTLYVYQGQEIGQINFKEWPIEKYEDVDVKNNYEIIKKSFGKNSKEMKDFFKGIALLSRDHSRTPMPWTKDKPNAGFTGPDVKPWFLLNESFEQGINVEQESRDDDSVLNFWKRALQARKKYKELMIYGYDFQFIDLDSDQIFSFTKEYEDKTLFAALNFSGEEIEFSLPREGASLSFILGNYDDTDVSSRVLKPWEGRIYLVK
Experimental: as §1

[7] = design: method as in doi:10.1016/j.indcrop.2015.04.013; conditions: cited from earlier work
[8] = cited from earlier work
[9] = design: method as in doi:10.1016/j.indcrop.2015.04.013; conditions: G. cruciata (Serbia) study; cited from earlier work

IC50, DPPH radicals scavenged by 50% ([1]; positive control): 11.62 ± 0.23 µg/mL (≈ 46.4 µM)
SMILES: Cc1c(C)c2c(c(C)c1O)CCC(C)(C(=O)O)O2 (stereo not drawn) [trolox, reference compound]

SMILES: O=c1c2cc(O)c(O)cc2oc2cc(O)c([C@@H]3O[C@H](CO)[C@@H](O)[C@H](O)[C@H]3O)c(O)c12 [Mangiferin]
αAIP, α-amylase inhibitory potential [2]: 296.14 ± 10.36 ^xxiv mg of acarbose per g of dry extract weight | percentage of peak area reduction after pre-chromatographic reaction with DPPH radicals [3]: 72–98% | LPA, lipid peroxidation inhibition activity [4]: 522.14 ± 20.85 ^xx mg of caffeic acid per g of dry extract weight | LPA, lipid peroxidation inhibition activity ([4]; listed as mangiferin): 522.14 mg of caffeic acid per g of dr | DPPH, 2,2-diphenyl-1-picrylhydrazyl radical scavenging activity [1]: 3824.20 ± 76.48 ^viii mg of trolox per g of dry extract weight | DPPH, 2,2-diphenyl-1-picrylhydrazyl radical scavenging activity ([1]; listed as mangiferin): 3824.20 mg of trolox per g of dry extr | O2^-, superoxide anion-radical scavenging activity [5]: 927.07 ± 18.54 ^xiv mg of quercetin per g of dry extract weight | O2^-, superoxide anion-radical scavenging activity ([5]; listed as mangiferin): 927.07 mg of quercetin per g of dry e | αGIP, α-glycosidase inhibitory potential [6]: 1562.84 ± 62.48 ^xxxvii mg of acarbose per g of dry extract weight

SMILES: C[C@@H]1[C@H]2[C@H](O[C@@H]3O[C@H](CO)[C@@H](O)[C@H](O)[C@H]3O)OC=C(C(=O)O)[C@H]2C[C@@H]1O [Loganic Acid, Loganic acid]
αAIP, α-amylase inhibitory potential [2]: < 10.00 mg of acarbose per g of dry extract weight | percentage of peak area reduction after pre-chromatographic reaction with DPPH radicals [3]: 3–5% | LPA, lipid peroxidation inhibition activity [4]: < 10.00 mg of caffeic acid per g of dry extract weight | DPPH, 2,2-diphenyl-1-picrylhydrazyl radical scavenging activity [1]: < 10.00 mg of trolox per g of dry extract weight | DPPH, 2,2-diphenyl-1-picrylhydrazyl radical scavenging activity ([1]; listed as loganic acid): < 10 mg of trolox per g of dry extr | O2^-, superoxide anion-radical scavenging activity [5]: < 10.00 mg of quercetin per g of dry extract weight | αGIP, α-glycosidase inhibitory potential [6]: < 10.00 mg of acarbose per g of dry extract weight

SMILES: Cc1cc(C(C)(C)C)c(O)c(C(C)(C)C)c1 [butylated hydroxytoluene]
IC50, inhibitory activity toward lipid peroxidation [7]: 1.00 µg/mL (≈ 4.54 µM)

IC50, lipid peroxidation inhibition ([4]; positive control): 58.96 ± 1.14 µg/mL (≈ 327 µM)
SMILES: O=C(O)/C=C/c1ccc(O)c(O)c1 [Caffeic acid, caffeic acid, reference compound]

SMILES: O=c1cc(-c2ccc(O)cc2)oc2cc(O)c([C@@H]3O[C@H](CO)[C@@H](O)[C@H](O)[C@H]3O)c(O)c12 [Isovitexin]
αAIP, α-amylase inhibitory potential [2]: 108.35 ± 3.79 ^xxii mg of acarbose per g of dry extract weight | αAIP, α-amylase inhibitory potential ([2]; listed as isovitexin): medium | LPA, lipid peroxidation inhibition activity [4]: 96.54 ± 3.73 ^xvii mg of caffeic acid per g of dry extract weight | DPPH, 2,2-diphenyl-1-picrylhydrazyl radical scavenging activity [1]: 425.11 ± 8.50 ^v mg of trolox per g of dry extract weight | O2^-, superoxide anion-radical scavenging activity [5]: 211.63 ± 4.20 ^xii mg of quercetin per g of dry extract weight

IC50, superoxide anion radicals scavenged by 50% ([5]; positive control): 21.74 ± 0.42 µg/mL (≈ 71.9 µM)
SMILES: O=c1c(O)c(-c2ccc(O)c(O)c2)oc2cc(O)cc(O)c12 [Quercetin, quercetin, reference compound]

SMILES: O=c1cc(-c2ccc(O)c(O)c2)oc2cc(O)c([C@@H]3O[C@H](CO)[C@@H](O)[C@H](O)[C@H]3O)c(O)c12 [Isoorientin, Luteolin-6-C-Glc (isoorientin)]
αAIP, α-amylase inhibitory potential [2]: 1242.03 ± 44.71 ^xxviii mg of acarbose per g of dry extract weight | percentage of peak area reduction after pre-chromatographic reaction with DPPH radicals [3]: 72–98% | αGIP, α-glycosidase inhibitory potential [6]: 811.10 ± 32.44 ^xxxvi mg of acarbose per g of dry extract weight

SMILES: C=C[C@@H]1C2=CCOC(=O)C2=CO[C@H]1O[C@@H]1O[C@H](CO)[C@@H](O)[C@H](O)[C@H]1O [Gentiopicroside]
αAIP, α-amylase inhibitory potential [2]: < 10.00 mg of acarbose per g of dry extract weight | percentage of peak area reduction after pre-chromatographic reaction with DPPH radicals [3]: 3–5% | LPA, lipid peroxidation inhibition activity [4]: < 10.00 mg of caffeic acid per g of dry extract weight | DPPH, 2,2-diphenyl-1-picrylhydrazyl radical scavenging activity [1]: < 10.00 mg of trolox per g of dry extract weight | DPPH, 2,2-diphenyl-1-picrylhydrazyl radical scavenging activity ([1]; listed as gentiopicroside): < 10 mg of trolox per g of dry extr | O2^-, superoxide anion-radical scavenging activity [5]: < 10.00 mg of quercetin per g of dry extract weight | αGIP, α-glycosidase inhibitory potential [6]: < 10.00 mg of acarbose per g of dry extract weight

SMILES: O=c1cc(-c2ccc(O)c(O)c2)oc2cc(O)c([C@@H]3O[C@H](CO)[C@@H](O)[C@H](O)[C@H]3O[C@@H]3O[C@H](CO)[C@@H](O)[C@H](O)[C@H]3O)c(O)c12 [isoorientin-2″-O-glucoside, Isoorientin-2″-O-Glc]
percentage of peak area reduction after pre-chromatographic reaction with DPPH radicals [3]: 72–98%

SMILES: O=C1O[C@H]([C@@H](O)CO)C(O)=C1O [ascorbic acid]
IC50 in the DPPH assay ([8]; Serbian species G. asclepiadea study): 5.23 µg/mL (≈ 29.7 µM) | IC50 in the DPPH assay ([8]; Serbian species G. cruciata study): 6.05 µg/mL (≈ 34.4 µM)

SMILES: O=C(O)c1cc(O)c(O)c(O)c1 [gallic acid]
superoxide scavenging potential (IC50) [9]: 360 µg/mL

Reference: PMC6918269, “Caucasian Gentiana Species: Untargeted LC-MS Metabolic Profiling, Antioxidant and Digestive Enzyme Inhibiting Activity of Six Plants” (Metabolites, 2019)
